Experimental findings from patent publication US7842324B2 (Senomyx, Inc., priority 2005, dated 2010) are described below.

The target of this assay is T1, hT1R2/hT1R3 sweet receptor expressed in HEK293 cell line (Homo sapiens, UniProt Q7RTX0+Q8TE23).
T1 construct: expressed in transfected cells; host or cells: HEK293 derivative stably expressing Gα15 and hT1R2/hT1R3, clone S-9
T1 sequence (Q8TE23 20-839): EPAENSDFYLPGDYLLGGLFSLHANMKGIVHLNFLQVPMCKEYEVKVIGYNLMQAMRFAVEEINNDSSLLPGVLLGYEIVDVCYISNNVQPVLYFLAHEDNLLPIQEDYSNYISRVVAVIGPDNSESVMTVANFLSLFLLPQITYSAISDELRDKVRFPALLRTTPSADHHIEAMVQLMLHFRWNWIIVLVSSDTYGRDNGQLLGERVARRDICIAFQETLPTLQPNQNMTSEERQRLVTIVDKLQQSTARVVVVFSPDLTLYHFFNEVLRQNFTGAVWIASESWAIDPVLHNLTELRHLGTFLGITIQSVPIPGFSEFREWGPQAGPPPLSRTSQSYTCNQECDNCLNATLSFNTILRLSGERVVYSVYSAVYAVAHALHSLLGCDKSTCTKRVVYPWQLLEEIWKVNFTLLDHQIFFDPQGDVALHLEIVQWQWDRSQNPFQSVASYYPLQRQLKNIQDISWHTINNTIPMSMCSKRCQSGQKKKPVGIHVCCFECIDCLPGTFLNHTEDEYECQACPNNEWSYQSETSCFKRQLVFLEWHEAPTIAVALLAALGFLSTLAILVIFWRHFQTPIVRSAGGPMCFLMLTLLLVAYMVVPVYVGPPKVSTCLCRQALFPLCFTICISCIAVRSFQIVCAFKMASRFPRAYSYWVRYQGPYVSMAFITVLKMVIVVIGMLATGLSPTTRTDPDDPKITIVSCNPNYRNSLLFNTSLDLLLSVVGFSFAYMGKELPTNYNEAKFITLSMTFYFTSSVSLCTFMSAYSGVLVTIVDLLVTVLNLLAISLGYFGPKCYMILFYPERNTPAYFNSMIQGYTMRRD
T1 sequence (Q7RTX0 21-852): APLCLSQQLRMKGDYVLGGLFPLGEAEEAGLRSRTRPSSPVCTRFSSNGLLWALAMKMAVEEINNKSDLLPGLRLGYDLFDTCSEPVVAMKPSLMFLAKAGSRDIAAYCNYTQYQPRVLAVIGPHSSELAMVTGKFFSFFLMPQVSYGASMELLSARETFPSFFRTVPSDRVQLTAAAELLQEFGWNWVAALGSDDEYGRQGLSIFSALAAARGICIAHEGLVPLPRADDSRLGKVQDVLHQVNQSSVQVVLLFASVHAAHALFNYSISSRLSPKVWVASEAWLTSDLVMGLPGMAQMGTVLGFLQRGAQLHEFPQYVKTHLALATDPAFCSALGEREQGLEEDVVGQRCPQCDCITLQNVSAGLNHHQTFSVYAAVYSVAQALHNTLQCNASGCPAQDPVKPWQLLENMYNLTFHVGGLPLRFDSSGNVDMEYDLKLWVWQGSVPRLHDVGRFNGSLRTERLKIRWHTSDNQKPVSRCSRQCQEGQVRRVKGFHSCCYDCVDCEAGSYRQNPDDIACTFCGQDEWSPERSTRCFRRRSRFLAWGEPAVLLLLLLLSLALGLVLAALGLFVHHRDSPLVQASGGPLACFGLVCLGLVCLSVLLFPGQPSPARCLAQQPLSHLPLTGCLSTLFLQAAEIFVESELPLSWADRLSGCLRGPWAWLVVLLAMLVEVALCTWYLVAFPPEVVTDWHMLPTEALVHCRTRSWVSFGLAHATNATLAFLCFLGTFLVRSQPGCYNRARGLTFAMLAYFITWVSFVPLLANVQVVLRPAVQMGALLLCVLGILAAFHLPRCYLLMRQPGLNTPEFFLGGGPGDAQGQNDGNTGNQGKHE
Put plainly: In vitro hT1R2/hT1R3-HEK293 taste receptor activation assay (FLIPR). The following applies: read-out: EC50 for activation of a hT1R2/hT1R3 sweet receptor expressed in HEK293 cell line. In kind it is cell-based. The procedure, abridged:
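HEK293 cells stably expressing Gα15 and hT1R2/hT1R3 were loaded with Fluo-3AM (4 μM, 1 h, room temperature), then stimulated at room temperature in D-PBS. Peak fluorescence (ex 480/em 535 nm) was normalized to basal. Dose-responses were run in duplicate over 60 nM–30 μM, normalized to 400 mM D-fructose, and EC50 fitted by free-Hill non-linear regression.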

As for `CC(C)CNC(=O)C(C)(C)c1ccc(-c2cncc(C#N)c2)cc1` [Compound 23, 2-(4-(5-cyanopyridin-3-yl)phenyl)-N-isobutyl-2-methylpropanamide], the EC50 is 0.15 µM.
